Test results taken from PubChem BioAssay AID256 (DTP/NCI, 2004).
Several values for one entry are separate records, joined by “and”; a condition that tells them apart may be missing. Identical values can stand only once. Toxic doses and inconclusive results are not listed. The calls were made as follows: active = survival T/C of 150% or more; inactive = T/C below 125% in these data.

System: CD2F1 mice, L1210 leukemia ip, survival T/C
Assay: NCI In Vivo Anticancer Drug Screen. Data for tumor model L1210 Leukemia (intraperitoneal) in CD2F1 (CDF1) mice
Details: higher = longer survival
Summary of the method: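 Transplantable tumor in mice; compound-treated vs vehicle-treated groups. Read-out = treated/control ratio of the measured endpoint.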

[1] = endpoint: mean survival time, dose: 100.0 mg/kg/injection, schedule: Q01DX009 (ip), vehicle: saline with Tween-80
[2] = endpoint: mean survival time, dose: 200.0 mg/kg/injection, schedule: Q01DX009 (ip), vehicle: saline with Tween-80
[3] = endpoint: mean survival time, dose: 400.0 mg/kg/injection, schedule: Q01DX009 (ip), vehicle: saline with Tween-80
[4] = endpoint: mean survival time, dose: 100.0 mg/kg/injection, schedule: Q04DX003 (ip), vehicle: saline with Tween-80
[5] = endpoint: mean survival time, dose: 200.0 mg/kg/injection, schedule: Q04DX003 (ip), vehicle: saline with Tween-80
[6] = endpoint: mean survival time, dose: 400.0 mg/kg/injection, schedule: Q04DX003 (ip), vehicle: saline with Tween-80
[7] = endpoint: mean survival time, dose: 100.0 mg/kg/injection, schedule: Q01DX001 (ip), vehicle: saline with Tween-80
[8] = endpoint: mean survival time, dose: 200.0 mg/kg/injection, schedule: Q01DX001 (ip), vehicle: saline with Tween-80
[9] = endpoint: mean survival time, dose: 400.0 mg/kg/injection, schedule: Q01DX001 (ip), vehicle: saline with Tween-80
[10] = endpoint: mean survival time, dose: 10.0 mg/kg/injection, schedule: Q01DX009 (ip), vehicle: sodium bicarbonate
[11] = endpoint: mean survival time, dose: 100.0 mg/kg/injection, schedule: Q04DX003 (ip), vehicle: saline
[12] = endpoint: mean survival time, dose: 12.5 mg/kg/injection, schedule: Q01DX009 (ip), vehicle: saline with Tween-80
[13] = endpoint: mean survival time, dose: 25.0 mg/kg/injection, schedule: Q01DX009 (ip), vehicle: saline with Tween-80
[14] = endpoint: mean survival time, dose: 50.0 mg/kg/injection, schedule: Q01DX009 (ip), vehicle: saline with Tween-80

Measured: T/C

CCOC(=O)C(C(=O)OCC)C(=O)c1cccc2c1ccc1ccccc12
inactive: endpoint: mean survival time, dose: 100.0 mg/kg/injection, schedule: Q01DX005 (ip), vehicle: saline with Tween-80 95 % of control | [1] 104 % of control | endpoint: mean survival time, dose: 200.0 mg/kg/injection, schedule: Q01DX005 (ip), vehicle: saline with Tween-80 95 % of control | [2] 93 % of control | endpoint: mean survival time, dose: 400.0 mg/kg/injection, schedule: Q01DX005 (ip), vehicle: saline with Tween-80 95 % of control | [3] 86 % of control

Cc1cccc(CN=C(N)CCl)n1
inactive: endpoint: mean survival time, dose: 100.0 mg/kg/injection, schedule: Q04DX002 (ip), vehicle: saline 111 % of control | endpoint: mean survival time, dose: 200.0 mg/kg/injection, schedule: Q04DX002 (ip), vehicle: saline 116 % of control

NC(N)=NS(=O)(=O)c1ccc(NCc2c3ccccc3nc3ccccc23)cc1
active: endpoint: median survival time, dose: 50.0 mg/kg/injection, schedule: Q01DX005 (ip), vehicle: Klucel (hydroxypropylcellulose) (HPC) 150 % of control | endpoint: median survival time, dose: 172.8 mg/kg/injection, schedule: Q01DX005 (ip), vehicle: Klucel (hydroxypropylcellulose) (HPC) 178 % of control | endpoint: median survival time, dose: 200.0 mg/kg/injection, schedule: Q01DX005 (ip), vehicle: Klucel (hydroxypropylcellulose) (HPC) 153 % of control | endpoint: median survival time, dose: 400.0 mg/kg/injection, schedule: Q01DX005 (ip), vehicle: Klucel (hydroxypropylcellulose) (HPC) 172 % of control | endpoint: median survival time, dose: 480.0 mg/kg/injection, schedule: Q01DX005 (ip), vehicle: Klucel (hydroxypropylcellulose) (HPC) 150 % of control | endpoint: median survival time, dose: 800.0 mg/kg/injection, schedule: Q01DX005 (ip), vehicle: Klucel (hydroxypropylcellulose) (HPC) 178 % of control and 182 % of control | endpoint: median survival time, dose: 1333.33 mg/kg/injection, schedule: Q01DX005 (ip), vehicle: Klucel (hydroxypropylcellulose) (HPC) 187 % of control

CC1(C)Oc2nc[nH]c(=O)c2C1c1ccccc1 (configuration not stated)
inactive: [1] 115 % of control | [4] 101 % of control | [2] 107 % of control | [5] 101 % of control | [3] 98 % of control | [6] 98 % of control

Fc1c(F)c(F)c(Nc2c(F)c(F)c3c(F)c(F)c(F)c(F)c3c2F)c(F)c1F
inactive: [7] 98 % of control | [8] 96 % of control | [9] 98 % of control

NC1=NC(=O)CC(=O)N1
inactive: [7] 102 % of control | [8] 103 % of control

CC(C)(C)OC(=O)NC(CC(N)=O)C(=O)O (configuration not stated)
inactive: endpoint: mean survival time, dose: 100.0 mg/kg/injection, schedule: Q01DX001 (ip), vehicle: saline sonified 98 % of control | endpoint: mean survival time, dose: 200.0 mg/kg/injection, schedule: Q01DX001 (ip), vehicle: saline sonified 93 % of control | endpoint: mean survival time, dose: 400.0 mg/kg/injection, schedule: Q01DX001 (ip), vehicle: saline sonified 98 % of control

CNC(=O)CCC(NC(=O)c1ccc(N(C)Cc2cnc3nc(N)nc(N)c3n2)cc1)C(=O)O (configuration not stated)
inactive: endpoint: mean survival time, dose: 1.0 mg/kg/injection, schedule: Q01DX009 (ip), vehicle: sodium bicarbonate 103 % of control | [10] 113 % of control | endpoint: mean survival time, dose: 25.0 mg/kg/injection, schedule: Q01DX009 (ip), vehicle: sodium bicarbonate 121 % of control

CN(Cc1cnc2nc(N)nc(N)c2n1)c1ccc(C(=O)NC(CCC(=O)NCc2ccccc2)C(=O)O)cc1 (configuration not stated)
inactive: endpoint: mean survival time, dose: 5.0 mg/kg/injection, schedule: Q01DX009 (ip), vehicle: sodium bicarbonate 108 % of control | [10] 112 % of control

CC(C)(C)[N+](Cc1ccccc1)(Cc1ccccc1)Cc1ccccc1
inactive: [1] 104 % of control | [2] 96 % of control | [3] 98 % of control

O=C1NC(=O)C(=O)N1
inactive: endpoint: mean survival time, dose: 100.0 mg/kg/injection, schedule: Q01DX009 (ip), vehicle: saline 94 % of control | endpoint: mean survival time, dose: 200.0 mg/kg/injection, schedule: Q01DX009 (ip), vehicle: saline 105 % of control | endpoint: mean survival time, dose: 400.0 mg/kg/injection, schedule: Q01DX009 (ip), vehicle: saline 108 % of control

CON=C(/C=C\c1ccccc1)/C=C/c1ccccc1
inactive: [7] 102 % of control | [1] 103 % of control | [8] 98 % of control | [2] 101 % of control | [9] 93 % of control | [3] 97 % of control

CN(C)/N=N\c1ncn(C2OC(CO)C(O)C2O)c1C(N)=O (configuration not stated)
inactive: endpoint: mean survival time, dose: 100.0 mg/kg/injection, schedule: Q01DX005 (ip), vehicle: saline 123 % of control

COC(=O)CCC#N
inactive: [11] 96 % of control | endpoint: mean survival time, dose: 200.0 mg/kg/injection, schedule: Q04DX003 (ip), vehicle: saline 91 % of control | endpoint: mean survival time, dose: 400.0 mg/kg/injection, schedule: Q04DX003 (ip), vehicle: saline 97 % of control

CCc1ccc(O[Si](C)(C)C)cc1
inactive: [4] 97 % of control | [5] 99 % of control

COC(=O)Nc1nc2ccc(C3(c4ccc(F)cc4)OCCO3)cc2[nH]1
inactive: endpoint: mean survival time, dose: 1.56 mg/kg/injection, schedule: Q01DX009 (ip), vehicle: saline 96 % of control | endpoint: mean survival time, dose: 3.12 mg/kg/injection, schedule: Q01DX009 (ip), vehicle: saline 91 % of control | endpoint: mean survival time, dose: 6.25 mg/kg/injection, schedule: Q01DX009 (ip), vehicle: saline 90 % of control | [12] 104 % of control | endpoint: mean survival time, dose: 12.5 mg/kg/injection, schedule: Q01DX009 (ip), vehicle: saline 94 % of control and 104 % of control | [13] 106 % of control | endpoint: mean survival time, dose: 25.0 mg/kg/injection, schedule: Q01DX009 (ip), vehicle: saline 105 % of control | endpoint: mean survival time, dose: 40.0 mg/kg/injection, schedule: Q04DX003 (ip), vehicle: saline 120 % of control | endpoint: mean survival time, dose: 50.0 mg/kg/injection, schedule: Q04DX003 (ip), vehicle: saline 115 % of control | [2] 87 % of control
active: endpoint: mean survival time, dose: 60.0 mg/kg/injection, schedule: Q04DX003 (ip), vehicle: saline 151 % of control and 152 % of control | endpoint: mean survival time, dose: 80.0 mg/kg/injection, schedule: Q04DX003 (ip), vehicle: saline 181 % of control | [11] 181 % of control | endpoint: mean survival time, dose: 150.0 mg/kg/injection, schedule: Q01DX009 (oral), vehicle: saline 156 % of control | endpoint: mean survival time, dose: 200.0 mg/kg/injection, schedule: Q01DX009 (oral), vehicle: saline 156 % of control

C1SCc2c1c1c(c3c2CSC3)CSC1
inactive: [7] 87 % of control | [9] 87 % of control

Nc1nc(N)c(CCCOc2ccc(C(=O)O)cc2)c(N)n1
inactive: endpoint: mean survival time, dose: 50.0 mg/kg/injection, schedule: Q01DX009 (ip), vehicle: Klucel (hydroxypropylcellulose) (HPC) 94 % of control | endpoint: mean survival time, dose: 100.0 mg/kg/injection, schedule: Q01DX009 (ip), vehicle: Klucel (hydroxypropylcellulose) (HPC) 101 % of control | endpoint: mean survival time, dose: 200.0 mg/kg/injection, schedule: Q01DX009 (ip), vehicle: Klucel (hydroxypropylcellulose) (HPC) 94 % of control

Cc1ccc(NC(=O)N2CCN(C)CC2)cc1[N+](=O)[O-]
inactive: [14] 94 % of control | [1] 90 % of control | [2] 94 % of control

NC(=O)c1[nH]cnc1/N=N/N(CCO)Cc1ccccc1
inactive: [4] 98 % of control | [5] 95 % of control | [6] 95 % of control

Cc1ccc(NC(=O)Oc2ccc(Br)cc2Br)c([N+](=O)[O-])c1
inactive: endpoint: mean survival time, dose: 50.0 mg/kg/injection, schedule: Q04DX003 (ip), vehicle: saline with Tween-80 106 % of control | [4] 104 % of control | [5] 96 % of control | [6] 100 % of control | endpoint: median survival time, dose: 100.0 mg/kg/injection, schedule: Q01DX009 (ip), vehicle: saline with Tween-80 98 % of control | endpoint: median survival time, dose: 200.0 mg/kg/injection, schedule: Q01DX009 (ip), vehicle: saline with Tween-80 100 % of control | endpoint: median survival time, dose: 400.0 mg/kg/injection, schedule: Q01DX009 (ip), vehicle: saline with Tween-80 105 % of control | endpoint: median survival time, dose: 800.0 mg/kg/injection, schedule: Q01DX009 (ip), vehicle: saline with Tween-80 101 % of control

CCCCCCCCC(=O)O
inactive: [4] 100 % of control | [5] 100 % of control | [6] 102 % of control

COC(=O)Nc1ccc(OS(=O)(=O)N(C)C)cc1
inactive: [4] 103 % of control | [5] 98 % of control | [6] 103 % of control

O=C(CCl)NCCCNC(=O)CCl
inactive: [4] 105 % of control

C/C(=N\NC(N)=O)c1cccc(/C(C)=N/NC(N)=O)n1
inactive: endpoint: mean survival time, dose: 6.25 mg/kg/injection, schedule: Q01DX009 (ip), vehicle: saline with Tween-80 102 % of control and 103 % of control | [12] 103 % of control and 104 % of control | [13] 100 % of control and 101 % of control | [14] 98 % of control and 103 % of control | [1] 92 % of control and 102 % of control | [2] 91 % of control and 110 % of control

CC1=C(C)C(=O)C(CC2=C(C)C(=O)C(C)=C(C)C2=O)=C(C)C1=O
inactive: endpoint: mean survival time, dose: 100.0 mg/kg/injection, schedule: Q04DX002 (ip), vehicle: saline with Tween-80 102 % of control | endpoint: mean survival time, dose: 200.0 mg/kg/injection, schedule: Q04DX002 (ip), vehicle: saline with Tween-80 91 % of control | endpoint: mean survival time, dose: 400.0 mg/kg/injection, schedule: Q04DX002 (ip), vehicle: saline with Tween-80 109 % of control
